Among the test systems are CAKI-1 renal; HOP-92 NSCLC; OVCAR-4 ovarian; A549 NSCLC; PC-3 prostate; RPMI-8226 leukemia; HCC-2998 colon; SK-MEL-5 melanoma; SK-OV-3 ovarian; COLO 205 colon.
Holding throughout (experiment): NCI tumour cell line growth inhibition, 48 h

Values joined by “and” are separate entries in the source; they are usually repeats but may differ in a detail not shown here. Equal entries are not always repeated.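 Step 1: Grow cells in 96-well plates. Step 2: Expose to compound for 48 hours at 5 concentrations. Step 3: Interpolate endpoints linearly; if unreached, use highest concentration. Here, GI50 denotes the concentration required for 50% inhibition of growth. At the TGI there is no net growth.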

Turning to `C(=Nc1ccccc1)C1CCCC[N-]1.C(=Nc1ccccc1)C1CCCC[N-]1.[Cu+2].[O-][Cl+3]([O-])([O-])O` (configuration not stated), the GI50 is 3.96 µM in the assay on CAKI-1 renal; 23 µM with HOP-92 NSCLC; 26 µM with OVCAR-4 ovarian; above 36.8 µM in the assay with A549 NSCLC; 12.3 µM with PC-3 prostate; 3.52 µM in the assay on RPMI-8226 leukemia. Moreover, the GI50 is 2.4 µM in the assay on HCC-2998 colon, 8.64 µM with SK-MEL-5 melanoma, 0.704 µM in the assay on SK-OV-3 ovarian and 12.8 µM in the assay with COLO 205 colon. Further, the TGI in the assay with CAKI-1 renal was 16.6 µM; with HOP-92 NSCLC, above 73.9 µM; in the assay on OVCAR-4 ovarian, 84.4 µM; with A549 NSCLC, above 57.1 µM; in the assay on PC-3 prostate, 34.2 µM; in the assay with RPMI-8226 leukemia, 10.9 µM. Moreover, the TGI with HCC-2998 colon was 24.4 µM; in the assay with SK-MEL-5 melanoma, 27.7 µM; in the assay with SK-OV-3 ovarian, 35.8 µM; in the assay on COLO 205 colon it was above 52.2 µM.
For `CN1C(=O)c2c(ccc3c2OCO3)C2C(O)Cc3cc4c(cc3C21)OCO4` (configuration not stated), the TGI in the assay with CAKI-1 renal is 81.7 µM; with HOP-92 NSCLC, above 100 µM; with OVCAR-4 ovarian, above 100 µM; with A549 NSCLC it was above 100 µM; with PC-3 prostate it was above 100 µM; in the assay with RPMI-8226 leukemia it was above 100 µM. Also, the TGI in the assay on HCC-2998 colon is 64.4 µM; in the assay on SK-MEL-5 melanoma, above 100 µM; in the assay on SK-OV-3 ovarian, 8.37 µM; in the assay on COLO 205 colon, 14.4 µM.
Consider `COc1ccc2c(c1)C(=O)c1c-2n(CCCN)c(=O)c2ccccc12`, for which the GI50 with CAKI-1 renal was below 0.0468 µM; with HOP-92 NSCLC, 0.181 µM; in the assay with OVCAR-4 ovarian it was 0.133 µM; in the assay with A549 NSCLC it was below 0.01 µM; in the assay on PC-3 prostate, 0.206 µM; with RPMI-8226 leukemia, below 0.0114 µM. The GI50 with HCC-2998 colon is 0.164 µM; with SK-MEL-5 melanoma it was 0.0586 µM; in the assay on SK-OV-3 ovarian, below 0.0202 µM; in the assay with COLO 205 colon, below 0.0318 µM. Moreover, the TGI worked out at 0.251 µM in the assay on CAKI-1 renal; 1.43 µM in the assay on HOP-92 NSCLC; 1.61 µM in the assay on OVCAR-4 ovarian; 0.0689 µM with A549 NSCLC; 1.26 µM in the assay on PC-3 prostate; 0.0316 µM with RPMI-8226 leukemia. Moreover, the TGI stood at 1.18 µM in the assay with HCC-2998 colon, 0.477 µM with SK-MEL-5 melanoma, 0.0652 µM in the assay on SK-OV-3 ovarian and 0.807 µM in the assay with COLO 205 colon.
With `C=C(Cn1c(=O)c2ccccc2c2ccccc21)c1ccc(C(=O)Nc2ccccc2N)cc1`, the GI50 was 23.3 µM with CAKI-1 renal; 0.689 µM with HOP-92 NSCLC; 5.22 µM in the assay with OVCAR-4 ovarian; above 48.3 µM in the assay on A549 NSCLC; 4.37 µM in the assay on PC-3 prostate; 0.765 µM in the assay with RPMI-8226 leukemia. Also, the GI50 was 31.1 µM in the assay with HCC-2998 colon, 20.6 µM in the assay with SK-MEL-5 melanoma, 24.3 µM with SK-OV-3 ovarian and 45.1 µM with COLO 205 colon. Also, the TGI in the assay on CAKI-1 renal is above 100 µM; in the assay on HOP-92 NSCLC, 26.1 µM; in the assay with OVCAR-4 ovarian, above 100 µM; in the assay with A549 NSCLC, above 100 µM; with PC-3 prostate, above 79.4 µM; in the assay on RPMI-8226 leukemia, 4.36 µM. For the same molecule, the TGI with HCC-2998 colon, with SK-MEL-5 melanoma, in the assay on SK-OV-3 ovarian and with COLO 205 colon was above 100 µM each time.
Consider `Cc1nc2ccc(CN(C)c3ccc(C(=O)N[C@@H](CCC(=O)O)C(=O)O)s3)cc2c(=O)[nH]1`, for which the TGI in the assay with CAKI-1 renal, in the assay on HOP-92 NSCLC, with OVCAR-4 ovarian, with A549 NSCLC, with PC-3 prostate and in the assay with RPMI-8226 leukemia was above 100 µM each time. Also, the TGI in the assay on HCC-2998 colon, in the assay with SK-MEL-5 melanoma, with SK-OV-3 ovarian and in the assay on COLO 205 colon was above 100 µM in each case. The GI50 in the assay with HCC-2998 colon was below 0.01 µM; in the assay on SK-MEL-5 melanoma, 0.173 µM.
For `CC(C)[C@](O)(c1ccc2cc(OC(F)F)c(OC(F)F)cc2c1)c1cn[nH]n1`, the GI50 in the assay on CAKI-1 renal was 13 µM and 10.2 µM; with HOP-92 NSCLC it was 13.6 µM and 13.5 µM; in the assay with OVCAR-4 ovarian it was 21.9 µM and 15 µM; in the assay on A549 NSCLC, 23.5 µM and 19.5 µM; with PC-3 prostate, 17.5 µM and 14.2 µM; in the assay on RPMI-8226 leukemia it was 24.9 µM and 18.2 µM. Further, the GI50 in the assay on HCC-2998 colon is 18.2 µM and 18.4 µM; in the assay on SK-MEL-5 melanoma, 17.1 µM and 16.9 µM; in the assay on SK-OV-3 ovarian it was 14.6 µM and 17.7 µM; in the assay with COLO 205 colon, 17 µM and 21.5 µM. Besides, the TGI with CAKI-1 renal was 37 µM and 34.5 µM; in the assay with HOP-92 NSCLC, 32.2 µM and 29.3 µM; in the assay on OVCAR-4 ovarian, > 100 µM and 54.4 µM; in the assay with A549 NSCLC, 59.7 µM and 47.6 µM; in the assay with PC-3 prostate, 35.4 µM and 33.4 µM; with RPMI-8226 leukemia it was 68.4 µM and 53 µM. Also, the TGI in the assay on HCC-2998 colon was 36.3 µM and 34.5 µM; in the assay with SK-MEL-5 melanoma it was 30.9 µM and 30.7 µM; in the assay on SK-OV-3 ovarian, 38.6 µM and 45.5 µM; in the assay on COLO 205 colon, 33.9 µM and 43.2 µM.

For the origin of these results see PubChem BioAssay (NCI).
